Calls of active or inactive are those of the source.
Tests used:
[1] = target: T1, RNA-binding protein pos-1 (Caenorhabditis elegans, UniProt G5EF15); test: disruptors of C. elegans POS-1 RNA interaction – biochemical, fluorescence polarization, dose response (AID 1964);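 also: purified POS-1 fused to maltose binding protein made in E. coli; potency of compounds blocking POS-1 binding to fluorescent RNA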
T1 sequence (G5EF15 whole entry): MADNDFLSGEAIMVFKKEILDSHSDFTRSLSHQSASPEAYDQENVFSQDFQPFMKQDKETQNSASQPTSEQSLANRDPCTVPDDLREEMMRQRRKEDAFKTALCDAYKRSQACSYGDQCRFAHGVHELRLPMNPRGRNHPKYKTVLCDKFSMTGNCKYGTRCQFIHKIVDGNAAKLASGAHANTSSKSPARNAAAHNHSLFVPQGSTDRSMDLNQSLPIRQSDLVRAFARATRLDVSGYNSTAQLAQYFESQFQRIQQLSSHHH

[2] = target: Small ubiquitin-related modifier 2 (Homo sapiens, UniProt P61956); test: disruption of SUMO2 interaction with SIM peptide – biochemical, fluorescence polarization, uHTS hits, selectivity assay for SUMO1 interaction inhibitor project, dose response (AID 624385); assay type: functional; details: read-out: IC50_Mean
Protein RecA = target: T2, Protein RecA (Mycobacterium tuberculosis, UniProt P9WHJ3); test: GFP-RecA MOA-DTT Measured in Biochemical System Using Plate Reader - 2047-05_Inhibitor_Dose_DryPowder_Activity. [Related pubchem assays (depositor defined):AID2223]; design: species or system Mycobacterium tuberculosis H37Rv
T2 sequence (P9WHJ3 whole entry): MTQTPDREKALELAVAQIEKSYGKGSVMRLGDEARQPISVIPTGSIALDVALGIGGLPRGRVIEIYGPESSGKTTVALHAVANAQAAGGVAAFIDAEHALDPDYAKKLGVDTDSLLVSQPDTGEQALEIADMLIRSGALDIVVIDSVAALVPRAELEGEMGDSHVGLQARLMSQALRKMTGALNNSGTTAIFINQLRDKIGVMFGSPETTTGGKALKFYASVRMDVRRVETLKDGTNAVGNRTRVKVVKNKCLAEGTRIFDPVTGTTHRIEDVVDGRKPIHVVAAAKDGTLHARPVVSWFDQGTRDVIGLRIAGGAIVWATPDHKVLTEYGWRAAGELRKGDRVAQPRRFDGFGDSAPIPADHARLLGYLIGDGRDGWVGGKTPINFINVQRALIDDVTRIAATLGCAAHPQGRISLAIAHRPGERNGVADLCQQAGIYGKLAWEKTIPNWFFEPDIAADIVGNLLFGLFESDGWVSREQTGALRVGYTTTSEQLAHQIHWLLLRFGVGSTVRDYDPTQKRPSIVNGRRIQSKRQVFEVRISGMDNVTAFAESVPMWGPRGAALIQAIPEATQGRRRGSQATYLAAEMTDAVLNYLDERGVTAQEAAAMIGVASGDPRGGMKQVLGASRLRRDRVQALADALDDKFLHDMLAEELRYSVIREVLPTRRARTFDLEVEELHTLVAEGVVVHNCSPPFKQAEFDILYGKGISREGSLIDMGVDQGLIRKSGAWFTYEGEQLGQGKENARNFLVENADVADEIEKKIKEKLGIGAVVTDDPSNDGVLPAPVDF

BJ = test: cells; assay type: functional, cell-based; details: Homo sapiens
[3] = viability loss in CEM21 cells – cell-based, CellTiter-Glo luminescence, cherry-picked, cytotoxicity control for viral fusion inhibitor project, dose response (AID 652042); assay type: functional;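 also: potency for signal decrease meaning cytotoxicity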

Small ubiquitin-related modifier 2, sequence (P61956 whole entry): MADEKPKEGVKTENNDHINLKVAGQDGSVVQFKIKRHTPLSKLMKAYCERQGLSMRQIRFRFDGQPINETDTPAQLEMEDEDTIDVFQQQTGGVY

With `COc1ccc(NS(=O)(=O)c2ccc3c(c2)[C@H]2C=CC[C@H]2[C@@H](c2ccc(C(=O)O)cc2)N3)cc1` the EC50 [1] was 14.3 µM (inconclusive) and the IC50 [2] was 4.06 µM (active).
In the case of `Cn1nc(-c2ccccn2)nc2c(=O)n(C)c(=O)nc1-2`, the AC50 (Protein RecA) is reported as 0.143 µM (active).
In the case of `CCCCCCCCCCn1c2c(c(=N)c3c1CCC3)CCC2`, the EC50 (BJ) is reported as 2.46 µM (inconclusive) and the AC50 [3] is reported as 3.4 µM (active).
